Laboratory results published in ChEMBL document CHEMBL2440075, “In vitro structure-activity relationships of aplysinopsin analogs and their in vivo evaluation in the chick anxiety-depression model” (Bioorg Med Chem, 2013).

How the values were obtained:
[1] = target: 5-hydroxytryptamine receptor 2B (Homo sapiens, UniProt P41595); assay: Displacement of [3H]LSD from human recombinant 5HT2B receptor stably expressed in HEK cells; type: cell-based, HEK293
[2] = target: 5-hydroxytryptamine receptor 2A (Rattus norvegicus, UniProt P14842); assay: Displacement of [3H]ketanserin from rat 5HT2A receptor stably expressed in 3T3 cells; type: cell-based
[3] = target: 5-hydroxytryptamine receptor 7 (Homo sapiens, UniProt P34969); assay: Displacement of [3H]LSD from human recombinant 5HT7 receptor stably expressed in HEK cells; type: cell-based, HEK293
[4] = target: T1, 5-hydroxytryptamine receptor 2C (Homo sapiens, UniProt P28335); assay: Displacement of [3H]mesulergine from human recombinant 5HT2C receptor expressed in Flp-IN HEK cells; type: cell-based, HEK293
T1 sequence (P28335 whole entry): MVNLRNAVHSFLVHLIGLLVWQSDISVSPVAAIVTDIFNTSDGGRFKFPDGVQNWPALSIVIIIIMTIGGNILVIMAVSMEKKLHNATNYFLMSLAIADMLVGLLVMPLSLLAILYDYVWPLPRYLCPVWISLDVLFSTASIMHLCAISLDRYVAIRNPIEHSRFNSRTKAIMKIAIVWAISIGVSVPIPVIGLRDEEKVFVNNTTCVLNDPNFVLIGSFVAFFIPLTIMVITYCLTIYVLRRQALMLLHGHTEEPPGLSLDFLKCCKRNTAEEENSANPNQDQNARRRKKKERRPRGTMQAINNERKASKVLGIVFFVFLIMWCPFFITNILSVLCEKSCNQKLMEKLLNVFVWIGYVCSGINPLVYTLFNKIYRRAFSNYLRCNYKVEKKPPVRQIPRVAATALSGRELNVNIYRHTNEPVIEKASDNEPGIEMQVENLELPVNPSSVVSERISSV

[5] = target: 5-hydroxytryptamine receptor 5A (Homo sapiens, UniProt P47898); assay: Displacement of [3H]LSD from human recombinant 5HT5A receptor expressed in Flp-In CHO cells; type: cell-based
[6] = target: 5-hydroxytryptamine receptor 1D (Homo sapiens, UniProt P28221); assay: Displacement of [3H]5-CT from human recombinant 5HT1D receptor expressed in HEKT cells; type: cell-based
[7] = target: 5-hydroxytryptamine receptor 6 (Homo sapiens, UniProt P50406); assay: Displacement of [3H]LSD from human recombinant 5HT6 receptor stably expressed in HEK cells; type: cell-based, HEK293
[8] = target: 5-hydroxytryptamine receptor 1B (Homo sapiens, UniProt P28222); assay: Displacement of [3H]5-CT from human recombinant 5HT1B receptor stably expressed in HEK cells; type: cell-based, HEK293
[9] = target: T2, 5-hydroxytryptamine receptor 1A (Homo sapiens, UniProt P08908); assay: Displacement of [3H]way100635 from human recombinant 5HT1A receptor stably expressed in CHO cells; type: cell-based
T2 sequence (P08908 whole entry): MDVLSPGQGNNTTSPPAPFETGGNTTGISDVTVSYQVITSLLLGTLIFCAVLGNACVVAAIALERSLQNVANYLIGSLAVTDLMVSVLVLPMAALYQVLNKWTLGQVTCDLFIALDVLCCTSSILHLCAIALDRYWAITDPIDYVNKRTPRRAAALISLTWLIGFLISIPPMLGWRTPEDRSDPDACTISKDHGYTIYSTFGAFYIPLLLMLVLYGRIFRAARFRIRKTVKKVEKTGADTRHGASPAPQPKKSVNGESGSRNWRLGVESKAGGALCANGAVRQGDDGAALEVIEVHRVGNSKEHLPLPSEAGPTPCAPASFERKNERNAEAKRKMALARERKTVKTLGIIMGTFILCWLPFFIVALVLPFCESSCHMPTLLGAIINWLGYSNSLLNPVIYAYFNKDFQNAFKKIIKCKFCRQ

[10] = target: 5-hydroxytryptamine receptor 1E (Homo sapiens, UniProt P28566); assay: Displacement of [3H]5-HT from human recombinant 5HT1E receptor stably expressed in HEK cells; type: cell-based, HEK293
[11] = target: 5-hydroxytryptamine receptor 4 (Homo sapiens, UniProt Q13639); assay: Displacement of [3H]GR113808 from human recombinant 5HT4 receptor
[12] = target: T3, 5-hydroxytryptamine receptor 3A (Homo sapiens, UniProt P46098); assay: Displacement of [3H]GR65630 from human recombinant 5HT3 receptor expressed in HEKT cells; type: cell-based
T3 sequence (P46098 whole entry): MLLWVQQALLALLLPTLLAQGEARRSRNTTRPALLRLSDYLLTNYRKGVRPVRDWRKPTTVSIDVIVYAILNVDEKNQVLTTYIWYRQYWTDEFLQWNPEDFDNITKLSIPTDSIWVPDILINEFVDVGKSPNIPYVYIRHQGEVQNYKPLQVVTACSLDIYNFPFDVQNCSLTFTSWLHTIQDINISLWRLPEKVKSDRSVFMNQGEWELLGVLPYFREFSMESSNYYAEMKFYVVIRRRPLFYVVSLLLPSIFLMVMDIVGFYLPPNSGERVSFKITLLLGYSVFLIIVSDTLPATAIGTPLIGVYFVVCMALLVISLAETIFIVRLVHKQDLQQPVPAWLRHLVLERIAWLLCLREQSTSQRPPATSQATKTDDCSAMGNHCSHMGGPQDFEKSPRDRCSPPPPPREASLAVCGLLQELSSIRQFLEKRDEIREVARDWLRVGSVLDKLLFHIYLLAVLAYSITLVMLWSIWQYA

5-hydroxytryptamine receptor 6, sequence (P50406 whole entry): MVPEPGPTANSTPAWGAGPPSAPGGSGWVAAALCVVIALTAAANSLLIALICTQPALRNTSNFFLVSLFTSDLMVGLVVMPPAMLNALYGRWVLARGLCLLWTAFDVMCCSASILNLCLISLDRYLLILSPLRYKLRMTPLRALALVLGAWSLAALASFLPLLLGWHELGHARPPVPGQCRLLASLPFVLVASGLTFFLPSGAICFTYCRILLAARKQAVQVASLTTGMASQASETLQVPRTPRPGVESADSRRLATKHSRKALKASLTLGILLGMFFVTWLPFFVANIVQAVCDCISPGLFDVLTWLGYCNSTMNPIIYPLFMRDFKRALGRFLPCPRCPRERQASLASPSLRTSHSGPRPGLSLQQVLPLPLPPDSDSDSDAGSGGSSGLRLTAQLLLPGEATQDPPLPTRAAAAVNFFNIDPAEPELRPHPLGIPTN
5-hydroxytryptamine receptor 7, sequence (P34969 whole entry): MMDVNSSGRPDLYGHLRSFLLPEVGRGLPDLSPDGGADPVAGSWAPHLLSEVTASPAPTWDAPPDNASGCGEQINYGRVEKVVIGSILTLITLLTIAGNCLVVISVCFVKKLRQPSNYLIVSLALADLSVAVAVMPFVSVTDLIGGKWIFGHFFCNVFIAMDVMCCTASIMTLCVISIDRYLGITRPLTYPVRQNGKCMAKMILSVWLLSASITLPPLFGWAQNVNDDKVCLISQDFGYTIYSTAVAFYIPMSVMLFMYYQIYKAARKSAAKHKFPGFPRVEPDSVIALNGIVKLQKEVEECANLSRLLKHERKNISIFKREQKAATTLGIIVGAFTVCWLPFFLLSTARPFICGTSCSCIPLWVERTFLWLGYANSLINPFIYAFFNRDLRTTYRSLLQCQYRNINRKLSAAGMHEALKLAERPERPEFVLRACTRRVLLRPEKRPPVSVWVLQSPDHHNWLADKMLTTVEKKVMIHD
5-hydroxytryptamine receptor 2B, sequence (P41595 whole entry): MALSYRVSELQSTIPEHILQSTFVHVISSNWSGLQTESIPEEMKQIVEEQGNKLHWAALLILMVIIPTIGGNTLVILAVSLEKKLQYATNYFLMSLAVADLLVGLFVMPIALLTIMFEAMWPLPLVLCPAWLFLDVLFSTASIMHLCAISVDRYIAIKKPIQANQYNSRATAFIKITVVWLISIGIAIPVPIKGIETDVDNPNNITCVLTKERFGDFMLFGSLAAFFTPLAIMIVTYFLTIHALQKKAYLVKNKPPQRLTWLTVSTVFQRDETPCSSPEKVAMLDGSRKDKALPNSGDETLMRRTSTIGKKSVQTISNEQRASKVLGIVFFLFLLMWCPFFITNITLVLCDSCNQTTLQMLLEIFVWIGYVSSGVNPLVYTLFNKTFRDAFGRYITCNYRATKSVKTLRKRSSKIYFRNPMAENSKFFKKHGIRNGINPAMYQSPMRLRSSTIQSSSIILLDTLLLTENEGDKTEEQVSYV
5-hydroxytryptamine receptor 4, sequence (Q13639 whole entry): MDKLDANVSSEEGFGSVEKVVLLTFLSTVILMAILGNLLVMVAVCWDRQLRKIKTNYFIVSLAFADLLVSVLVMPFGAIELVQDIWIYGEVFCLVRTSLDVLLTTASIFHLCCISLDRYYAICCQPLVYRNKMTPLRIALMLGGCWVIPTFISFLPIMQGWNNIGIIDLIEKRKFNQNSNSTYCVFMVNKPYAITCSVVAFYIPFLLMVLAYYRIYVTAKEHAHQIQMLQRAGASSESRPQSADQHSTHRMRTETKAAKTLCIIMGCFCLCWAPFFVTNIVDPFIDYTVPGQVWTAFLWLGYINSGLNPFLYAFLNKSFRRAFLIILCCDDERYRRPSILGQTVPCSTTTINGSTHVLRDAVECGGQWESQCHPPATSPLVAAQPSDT
5-hydroxytryptamine receptor 1E, sequence (P28566 whole entry): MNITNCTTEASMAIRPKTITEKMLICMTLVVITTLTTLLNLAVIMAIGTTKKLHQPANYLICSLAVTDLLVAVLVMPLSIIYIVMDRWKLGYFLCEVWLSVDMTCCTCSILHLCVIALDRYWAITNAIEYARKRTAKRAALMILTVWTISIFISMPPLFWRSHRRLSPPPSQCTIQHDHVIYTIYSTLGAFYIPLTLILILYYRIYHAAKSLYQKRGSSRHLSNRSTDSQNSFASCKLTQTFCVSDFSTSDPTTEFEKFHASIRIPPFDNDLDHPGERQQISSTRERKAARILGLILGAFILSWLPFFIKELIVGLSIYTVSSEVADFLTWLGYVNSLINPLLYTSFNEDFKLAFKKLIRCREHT
5-hydroxytryptamine receptor 1D, sequence (P28221 whole entry): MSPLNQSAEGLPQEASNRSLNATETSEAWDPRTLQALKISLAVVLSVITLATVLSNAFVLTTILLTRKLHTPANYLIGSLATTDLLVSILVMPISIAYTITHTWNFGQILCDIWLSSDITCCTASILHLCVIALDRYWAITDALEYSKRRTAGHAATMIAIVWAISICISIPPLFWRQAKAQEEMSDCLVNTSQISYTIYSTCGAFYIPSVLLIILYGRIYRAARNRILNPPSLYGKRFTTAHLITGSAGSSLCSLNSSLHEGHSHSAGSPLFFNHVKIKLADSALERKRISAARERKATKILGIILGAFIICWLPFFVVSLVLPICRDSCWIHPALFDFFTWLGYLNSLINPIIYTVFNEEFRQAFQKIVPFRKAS
5-hydroxytryptamine receptor 5A, sequence (P47898 whole entry): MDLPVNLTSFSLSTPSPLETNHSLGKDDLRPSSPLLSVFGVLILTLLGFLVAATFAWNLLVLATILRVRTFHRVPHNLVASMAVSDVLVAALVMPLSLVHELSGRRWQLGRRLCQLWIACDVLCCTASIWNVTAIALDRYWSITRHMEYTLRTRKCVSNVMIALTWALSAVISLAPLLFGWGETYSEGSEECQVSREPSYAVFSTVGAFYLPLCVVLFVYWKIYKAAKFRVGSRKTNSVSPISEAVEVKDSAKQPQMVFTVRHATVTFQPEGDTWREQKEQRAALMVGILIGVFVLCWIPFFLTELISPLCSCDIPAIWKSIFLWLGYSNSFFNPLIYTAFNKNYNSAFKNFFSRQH
5-hydroxytryptamine receptor 2A, sequence (P14842 whole entry): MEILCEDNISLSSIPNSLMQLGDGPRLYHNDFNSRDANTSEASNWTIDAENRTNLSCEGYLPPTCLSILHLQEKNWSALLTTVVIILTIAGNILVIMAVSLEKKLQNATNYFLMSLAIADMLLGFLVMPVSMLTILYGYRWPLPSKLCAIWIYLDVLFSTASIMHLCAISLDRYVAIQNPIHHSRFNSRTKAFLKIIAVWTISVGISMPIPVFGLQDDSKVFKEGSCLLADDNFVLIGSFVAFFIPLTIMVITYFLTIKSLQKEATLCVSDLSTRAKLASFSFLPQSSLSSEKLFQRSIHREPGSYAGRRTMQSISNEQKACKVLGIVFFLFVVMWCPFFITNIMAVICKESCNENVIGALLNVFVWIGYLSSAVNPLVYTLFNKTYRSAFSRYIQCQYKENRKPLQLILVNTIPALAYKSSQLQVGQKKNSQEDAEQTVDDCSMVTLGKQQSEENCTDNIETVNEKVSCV
5-hydroxytryptamine receptor 1B, sequence (P28222 whole entry): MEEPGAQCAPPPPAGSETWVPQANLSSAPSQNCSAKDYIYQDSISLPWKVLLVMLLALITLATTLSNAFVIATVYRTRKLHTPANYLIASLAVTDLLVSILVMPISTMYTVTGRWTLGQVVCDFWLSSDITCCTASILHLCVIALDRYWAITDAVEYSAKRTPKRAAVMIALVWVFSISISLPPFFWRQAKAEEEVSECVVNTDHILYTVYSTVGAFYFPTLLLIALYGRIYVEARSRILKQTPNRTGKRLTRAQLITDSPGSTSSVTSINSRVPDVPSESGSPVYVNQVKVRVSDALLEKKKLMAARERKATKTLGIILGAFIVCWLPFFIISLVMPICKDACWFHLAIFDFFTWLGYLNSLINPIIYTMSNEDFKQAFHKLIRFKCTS

SMILES | Ki [1] | Ki [2] | Ki [4] | Ki [5] | Ki [9] | also measured
O=C1NC(=S)N/C1=C\c1c[nH]c2cc(Br)ccc12 | 2710 nM |  |  |  |  | 
C/N=C1/N/C(=C/c2c[nH]c3ccc(Br)cc23)C(=O)N1C | 520 nM | > 10000 nM | 1340 nM |  |  | Ki [3]: 3350 nM
CN1C(=N)NC(=O)/C1=C\c1c[nH]c2cccc(Br)c12 | 784 nM | 1410 nM | 2010 nM |  |  | Ki [3]: 799 nM
C/N=C1\N(C)C(=O)/C(=C\c2c[nH]c3c(Br)cccc23)N1C | 965 nM |  | 6470 nM | 6910 nM | > 10000 nM | Ki [6]: 8870 nM; Ki [7]: 7300 nM; Ki [8]: > 10000 nM
CN1C(=N)N/C(=C/c2c[nH]c3cc(Br)ccc23)C1=O | 190 nM | 4160 nM | 1920 nM | 5360 nM | > 10000 nM | 
CN1C(=N)N/C(=C/c2c[nH]c3c(Br)cccc23)C1=O | 593 nM |  | 10000 nM | 1550 nM | 7270 nM | Ki [10]: > 10000 nM
N=C1NC(=O)/C(=C\c2c[nH]c3c(Br)cccc23)N1 | 457 nM | 2150 nM | 841 nM | 112 nM |  | Ki [7]: 1400 nM; Ki [10]: > 10000 nM
CSC1=NC(=O)/C(=C/c2c[nH]c3c(Br)cccc23)N1 | 993 nM |  |  |  |  | Ki [11]: 2350 nM
C/N=C1/N/C(=C/c2c[nH]c3c(Br)cccc23)C(=O)N1C | 839 nM |  | 10000 nM |  |  | Ki [10]: > 10000 nM
CN1C(=N)N(C)/C(=C/c2c[nH]c3cc(Br)ccc23)C1=O | 2670 nM |  | 1700 nM | 9620 nM | > 10000 nM | 
CN1C(=N)NC(=O)/C1=C\c1c[nH]c2cc(Br)ccc12 | 1380 nM |  | 3880 nM |  |  | 
C/N=C1/N/C(=C/c2c[nH]c3cccc(Br)c23)C(=O)N1C | 774 nM |  | 2340 nM |  |  | Ki [6]: > 10000 nM; Ki [8]: > 10000 nM
CN1C(=N)NC(=O)/C1=C\c1c[nH]c2c(Br)cccc12 | 1420 nM | > 10000 nM | 4130 nM | 1320 nM |  | Ki [10]: > 10000 nM
N=C1NC(=O)/C(=C\c2c[nH]c3cc(Br)ccc23)N1 | 269 nM | 3130 nM | 201 nM | 184 nM |  | Ki [10]: > 10000 nM
C/N=C1/N/C(=C/c2c[nH]c3ccccc23)C(=O)N1C | 5060 nM |  | 10000 nM |  |  | Ki [10]: > 10000 nM
CN1C(=N)N(C)/C(=C/c2c[nH]c3ccccc23)C1=O [APLYSINOPSIN] | 4450 nM |  | 10000 nM |  | > 10000 nM | Ki [12]: 3030 nM; Ki [7]: 8770 nM
O=C1NC(=S)N/C1=C\c1c[nH]c2cccc(Br)c12 | 369 nM |  | 1870 nM |  |  | Ki [11]: 2360 nM
C/N=C1\N(C)C(=O)/C(=C\c2c[nH]c3cc(Br)ccc23)N1C | 2470 nM |  | 1240 nM | 4680 nM | > 10000 nM | 
C/N=C1\N(C)C(=O)/C(=C\c2c[nH]c3ccccc23)N1C [METHYLAPLYSINOPSIN] | 4550 nM | > 10000 nM | 10000 nM |  |  | Ki [12]: 1510 nM; Ki [7]: 1720 nM; Ki [10]: > 10000 nM
CSC1=NC(=O)/C(=C/c2c[nH]c3ccc(Br)cc23)N1 | 1350 nM |  | 2090 nM |  |  | Ki [11]: 3800 nM
C/N=C1\NC(=O)/C(=C\c2c[nH]c3ccc(Br)cc23)N1C | 883 nM |  | 1080 nM |  | 2620 nM | Ki [3]: 4110 nM; Ki [12]: 6180 nM
C/N=C1\NC(=O)/C(=C\c2c[nH]c3ccccc23)N1C [ISOPLYSIN A] | 716 nM |  | 2350 nM |  |  | 

SMILES | Ki [1] | Ki [2] | Ki [4] | Ki [5] | Ki [9] | also measured
CN1C(=N)N/C(=C/c2c[nH]c3cccc(Br)c23)C1=O | 228 nM | 8670 nM | 1700 nM | 1280 nM | 3440 nM | 
CSC1=NC(=O)/C(=C/c2c[nH]c3cccc(Br)c23)N1 | 780 nM |  | 885 nM |  |  | Ki [11]: 1060 nM
C/N=C1\NC(=O)/C(=C/c2c[nH]c3cc(Br)ccc23)N1 | 154 nM |  | 980 nM |  |  | Ki [11]: 1160 nM
C/N=C1\NC(=O)/C(=C/c2c[nH]c3ccc(Br)cc23)N1 | 93 nM | 676 nM | 426 nM |  |  | Ki [7]: 860 nM; Ki [11]: 226 nM
C/N=C1/N/C(=C/c2c[nH]c3cc(Br)ccc23)C(=O)N1C | 1270 nM |  | 10000 nM |  |  | Ki [10]: > 10000 nM
C/N=C1\NC(=O)/C(=C\c2c[nH]c3c(Br)cccc23)N1C | 661 nM | 7970 nM | 2210 nM | 1420 nM | > 10000 nM | Ki [7]: 2310 nM; Ki [10]: > 10000 nM
N=C1NC(=O)/C(=C\c2c[nH]c3ccccc23)N1 | 232 nM | 1170 nM | 349 nM | 101 nM |  | 
CN1C(=N)N/C(=C/c2c[nH]c3ccccc23)C1=O | 1280 nM |  | 10000 nM |  |  | Ki [10]: > 10000 nM
C/N=C1\NC(=O)/C(=C/c2c[nH]c3cccc(Br)c23)N1 | 50 nM | 470 nM | 80 nM | 3370 nM |  | Ki [7]: 3730 nM; Ki [11]: 472 nM
O=C1NC(=S)N/C1=C\c1c[nH]c2ccc(Br)cc12 | 1680 nM |  | 4350 nM |  | 2750 nM | 
C/N=C1\NC(=O)/C(=C/c2c[nH]c3ccccc23)N1 | 287 nM |  | 970 nM |  |  | Ki [11]: 928 nM
C/N=C1\NC(=O)/C(=C/c2c[nH]c3c(Br)cccc23)N1 | 353 nM | 3590 nM | 678 nM | 3320 nM |  | Ki [11]: 603 nM
O=C1NC(=S)N/C1=C\c1c[nH]c2c(Br)cccc12 |  |  |  |  |  | Ki [11]: 2210 nM
CN1C(=N)N/C(=C/c2c[nH]c3ccc(Br)cc23)C1=O | 94 nM | 279 nM | 1270 nM | 2330 nM | 7360 nM | Ki [3]: 1220 nM
CSC1=NC(=O)/C(=C/c2c[nH]c3cc(Br)ccc23)N1 | 1140 nM |  | 4370 nM |  |  | Ki [11]: 5310 nM
C/N=C1\N(C)C(=O)/C(=C\c2c[nH]c3cccc(Br)c23)N1C | 897 nM | > 10000 nM | 1860 nM | 5080 nM | 6930 nM | Ki [12]: 591 nM; Ki [6]: 2550 nM; Ki [7]: 7520 nM; Ki [10]: > 10000 nM
C/N=C1\N(C)C(=O)/C(=C\c2c[nH]c3ccc(Br)cc23)N1C | 1620 nM |  | 2430 nM | 9120 nM | 2510 nM | Ki [3]: 5370 nM; Ki [12]: 2620 nM
CN1C(=N)NC(=O)/C1=C\c1c[nH]c2ccccc12 | 964 nM |  | 4780 nM |  |  | 
C/N=C1\NC(=O)/C(=C\c2c[nH]c3cc(Br)ccc23)N1C | 489 nM |  | 2280 nM |  |  | 
N=C1NC(=O)/C(=C\c2c[nH]c3cccc(Br)c23)N1 | 447 nM | 4620 nM | 604 nM | 123 nM |  | 
CN1C(=N)NC(=O)/C1=C\c1c[nH]c2ccc(Br)cc12 | 852 nM |  | 2450 nM |  | 3210 nM | Ki [10]: > 10000 nM
CN1C(=N)N(C)/C(=C/c2c[nH]c3ccc(Br)cc23)C1=O | 1250 nM |  | 1260 nM | 6720 nM | 527 nM | Ki [12]: 1000 nM
